Several values for one entry are separate records, joined by “and”; a condition that tells them apart may be missing. Equal entries are not always repeated.
Key:
[1] = system: U87MG; assay: WST-1 proliferation assay, U87MG; format: cell-based, human; settings: Homo sapiens, U-87 MG
Experimental: (§1) AP-121 was prepared as 5 mM stock solution in distilled sterile water, Temozolomide (TMZ) (Haorui Pharma-Chem, Inc., Edison, N.J.) was prepared as 100 mM in sterile filtrated DMSO; Adriamycin (ADR) (Sigma) was prepared as 1 mM in distilled sterile water; Camptothecin (CTP) (Sigma) was prepared as 10 mM solution in 0.1 N NaOH; Tarceva (Proteinkinase, Germany) was prepared as 5 mM solution in sterile DMSO. All compound stocks were kept at −20° C. 2000 cells were plated in each well of 96-well flat bottom plates, and incubated overnight at 37 °C in 5% CO2. The growth of plated cells was measured by adding […] of WST-1 reagent (Roche Applied Sciences, Germany) to 3 control wells and measuring the absorbance at 650 nm and at 450 nm, respectively, with a SpectraMax250 plate reader. […] After this incubation, VVST-1 reagent was added to the wells and OD650-OD450 values were calculated as before. six wells were assayed for each conditions and standard deviation was determined: all experiments were performed at least three times independently. […] Six different concentrations of each drug were used in combinations index measurements and compared to +/− cells, and compared to controls without compound.

[2] = system: A172; assay: WST-1 proliferation assay, A172; format: cell-based, human; settings: Homo sapiens, A 172
Experimental: as §1

[3] = system: LN-229; assay: WST-1 proliferation assay, LN-229; format: cell-based; settings: Homo sapiens
Experimental: (§2) 2000 cells were plated in each well of 96-well flat bottom plates, and incubated overnight at 37 °C in 5% CO2. The growth of plated cells was measured by adding […] of WST-1 reagent (Roche Applied Sciences, Germany) to 3 control wells and measuring the absorbance at 650 nm and at 450 nm, respectively, with a SpectraMax250 plate reader. If the OD650-OD450 values were above 0.5, the remainder of the plate was used for incubation with AP-121, other pharmacological agents or solvent control for 96 hours.
(§3) After this incubation, VVST-1 reagent was added to the wells and OD650-OD450 values were calculated as before. six wells were assayed for each conditions and standard deviation was determined: all experiments were performed at least three times independently. After elucidation of individual IC50 values for each compound, the simultaneous combination treatment of AP-121 and the chemotherapeutic agent at their IC50 ratio was performed; combination index (CI) was determined by Calcusyn software package (Biosoft, Ferguson, Mo.). Data were evaluated by calculating the means of the combination index (CI), where a CI of <0.3 indicates a strong synergistic effect, 0.3<CI<0.7 a synergistic effect, 0.7<CI<0.9 moderate synergy, 0.9<CI<1 additive effect and CI>1 antagonistic effect, respectively.
For the AP-121 cell proliferation drug combination measurements, the ED50 was determined for each drug. Six different concentrations of each drug were used in combinations index measurements and compared to +/− cells, and compared to controls without compound. Each combination was repeated 6 times at 2 different time points (24 and 96 hours), each of the above experiments was repeated 3 times to obtain valid results.

[4] = system: T98G; assay: WST-1 proliferation assay, T98G; format: cell-based; settings: Homo sapiens
Experimental: as §1

[5] = system: LN-18; assay: WST-1 proliferation assay, LN-18; format: cell-based; settings: Homo sapiens
Experimental: (§4) 2000 cells were plated in each well of 96-well flat bottom plates, and incubated overnight at 37 °C in 5% CO2. The growth of plated cells was measured by adding […] of WST-1 reagent (Roche Applied Sciences, Germany) to 3 control wells and measuring the absorbance at 650 nm and at 450 nm, respectively, with a SpectraMax250 plate reader. […] After this incubation, VVST-1 reagent was added to the wells and OD650-OD450 values were calculated as before. six wells were assayed for each conditions and standard deviation was determined: all experiments were performed at least three times independently. […] Six different concentrations of each drug were used in combinations index measurements and compared to +/− cells, and compared to controls without compound.

[6] = system: U118MG; assay: WST-1 proliferation assay, U118MG; format: cell-based, human; settings: Homo sapiens, U-118-MG
Experimental: as §1, with “compound. Each combination was repeated 6 times at 2 different time points (24 and 96 hours), each of the above experiments was repeated 3 times to obtain valid results.” for “compound.”

[7] = system: NCI-H460 (FAS positive); assay: WST-1 proliferation assay, NCI-H460; format: cell-based, human; settings: NCI-H460; single agent, per experiment line
Experimental: as §4, with “DDP and GMZ” for “Six different concentrations of each drug”, “both purchased from Sigma-aldrich Corp., St. Louis, Mo., USA. The following cell lines were used: A549 (FAS negative), NCI-H460 (FAS positive),” for “used in combinations index measurements”, “HCC827 (FAS positive), all obtained from the ATTC, Rockville, Md., USA.” for “compared to +/− cells, and compared to controls without compound.”

[8] = system: HCC827 (FAS positive); assay: WST-1 proliferation assay, HCC827; format: cell-based, human; settings: single agent, per experiment line
Experimental: as §4, with “DDP and GMZ” for “Six different concentrations of each drug”, “both purchased from Sigma-aldrich Corp., St. Louis, Mo., USA. The following cell lines were used: A549 (FAS negative), NCI-H460 (FAS positive),” for “used in combinations index measurements”, “HCC827 (FAS positive), all obtained from the ATTC, Rockville, Md., USA.” for “compared to +/− cells, and compared to controls without compound.”

[9] = system: A431; settings: mean ± SD from three independent experiments, read-out: ED50 values for induction of apoptosis; cited from earlier work
[10] = system: HeLa; settings: mean ± SD from three independent experiments, read-out: ED50 values for induction of apoptosis; cited from earlier work
[11] = system: LNCaP androgen-sensitive human prostate adenocarcinoma cells; assay: Apo-ONE Homogenous Caspase-3/7 Assay in LNCaP cells; format: cell-based; settings: AD + R1881, no CHEM
Experimental: FIG. 1. Depicts the in vitro effects of 1-O-octadecyl-2-O-methyl-glycero-3-phosphocholine (final concentration 10 μM), (ionizing) radiation (absorbed dose of 5 Gray units; indicated as “RT”), and a combination thereof on programmed cell death (apoptosis) and the survival rate of LNCaP androgen-sensitive human prostate adenocarcinoma cells. Apoptosis was determined using the Apo-ONE™ Homogenous Caspase-317 Assay, Promega, Inc., Madison, Wis., USA according to the manufacturers instructions. The percentage of living cancer cells was estimated by means of trypan blue dye exclusion as described (Freshney, R. I. (1994) Culture of Animal Cells: A Manual of Basic Technique. 3rd Ed. Wiley-Liss. New York. USA). The cells were exposed to radiation six hours after (FIG. 1A), concomitantly with (FIG. 1B), or six hours before administration of 1-O-octadecyl-2-O-methyl-glycero-3-phospho-choline (FIG. 1C). The caspase assay was performed 12 hours after exposure to radiation. The respective data shown represent the average of two independent experiments.
First, the in vitro effects of 1-O-octadecyl-2-O-methyl-glycero-3-phosphocholine, (ionizing) radiation, and a combination thereof on programmed cell death (apoptosis) and the survival rate of LNCaP androgen-sensitive human prostate adenocarcinoma cells were measured. The LNCaP cell line was established from a metastatic lesion of the adenocarcinoma. The cells were treated with a final concentration of 10 μM 1-O-octadecyl-2-O-methyl-glycero-3-phosphocholine and (ionizing) radiation corresponding to an absorbed dose of 5 Gray units.
Apoptosis was determined using the Apo-ONE™ Homogenous Caspase-3/7 Assay, Promega, Inc., Madison, VV1, USA according to the manufacturers instructions. The percentage of living tumor cells was estimated by means of trypan blue dye exclusion as described (Freshney, R. I. (1994) Culture of Animal Cells: A Manual of Basic Technique. 3rd Ed. Wiley-Liss. New York. USA)
The cells were exposed to radiation six hours after (FIG. 1A), concomitantly with (FIG. 1B), or six hours before administration of 1-O-octadecyl-2-O-methyl-glycero-3-phospho-choline (FIG. 1C). The caspase assay was performed 12 hours after exposure to radiation. The respective data shown represent the average of two independent experiments.
(§5) In a further approach, 10 μM 1-O-octadecyl-2-O-methyl-glycero-3-phosphocholine (final concentration; “CHEM”) and (ionizing) radiation (5 Gray units; “RT”) were administered simultaneously to the LNCaP cells but the subsequent incubation period was extended to 24 hours. Apoptosis was measured using the Apo-ONE™ Homogenous Caspase-3/7 Assay as described above and expressed as relative fluorescence units (RFLU). The percentage of apoptotic cells was determined by flow cytometric analysis of annexin V-PE positive-stained and 7-AAD (7-Amino ActinomycinD) negative-stained cells (both purchased from BD Biosciences, San Jose, Calif., USA) according to established standard protocols. The data represent means±SEM from three independent experiments.
(§6) Apoptosis was measured using the Apo-ONE™ Homogenous Caspase-3/7 Assay as described above and expressed as relative fluorescence units (RFLU). The percentage of apoptotic cells was determined via annexin V-PE/7-AAD staining as described above. The caspase-317 assay and annexin staining were performed 22 hours after CHEM treatment.

[12] = system: LNCaP cells; assay: flow cytometric analysis of annexin V-PE positive / 7-AAD negative LNCaP cells; format: cell-based, human; settings: AD + R1881, no CHEM
Experimental: as §5
Next, the interaction of 1-O-octadecyl-2-O-methyl-glycero-3-phosphocholine administration (“CHEM”) and androgen deprivation (“AD”) was investigated. LNCaP cells were deprived of androgen for two days by charcoal absorption of serum according to established procedures well known in the art. CHEM was added in a final concentration of 5 μM and 10 μM, respectively.
as §6

[13] = system: brain tumor cell lines U87MG, A172, LN-18, LN-229, U118MG, and T98G; assay: WST-1 proliferation assay, summaries over the brain tumor cell line panel; format: cell-based, human; settings: together with AP-121; all three cell lines (U87MG, A172, U118MG)
Experimental: As a biological test panel, we selected the brain tumor cell lines U87MG, A172, LN-18, LN-229, U118MG, and T98G that have different levels of mutations in p53 and PTEN as well as FAS receptor expression:
as §2, with “If the OD650-OD450 values were above 0.5, the remainder of the plate was used for incubation with AP-121, other pharmacological agents or solvent control for 96 hours.” left out
as §3, with “respectively. […]” for “respectively.”

Compound	IC50 [1] [µM]	IC50 [2] [µM]	IC50 [3] [µM]	IC50 [4] [µM]	IC50 [5] [µM]	IC50 [6] [µM]	further results
COc1cccc2c1C(=O)c1c(O)c3c(c(O)c1C2=O)C[C@@](O)(C(=O)CO)C[C@@H]3O[C@H]1C[C@H](N)[C@H](O)[C@H](C)O1 [ADR, Adriamycin]	0.11	0.07	0.13	0.17	0.09	0.12	
CC[C@@]1(O)C(=O)OCc2c1cc1n(c2=O)Cc2cc3ccccc3nc2-1 [CPT, Camptothecin]	0.04	0.02	0.02	0.02	0.04	0.004	
[NH2][Pt]([NH2])([Cl])[Cl] [DDP, cisplatinum, reference compound]							IC50 [7]: 1.3 µM; IC50 [8]: 3.4 µM and 3.5 µM
Nc1ccn([C@@H]2O[C@H](CO)[C@@H](O)C2(F)F)c(=O)n1 [GMZ, gemicitabin, reference compound]							IC50 [7]: 0.003 µM and 0.006 µM
CCCCCCCCCCCCCCCCOP(=O)([O-])OCC[N+](C)(C)C [HePC]							EC50 [9]: 17.3 ± 3 µM; EC50 [10]: 8.17 ± 0.4 µM
CCCCCCCCCCCCCCCCCCOP(=O)([O-])OC1CC[N+](C)(C)CC1 [Perifosine]							EC50 [9]: 23.2 ± 2.7 µM; EC50 [10]: 9.27 ± 1.8 µM
C[C@]1(O)CC[C@H]2[C@@H]3CCC4=CC(=O)CCC4=C3C=C[C@@]21C [R1881, reference compound]							Caspase-3/7 activity (RFLU) [11]: 130 RFLU; % Annexin V-PE pos. cells [12]: 7.0%
Cn1nnc2c(C(N)=O)ncn2c1=O [TMZ, Temozolomide]	425	38.3	278	608	554	382	effect of combination [13]: strong synergistic effect (a CI of <0.3 indicates a strong synergistic effect)
C#Cc1cccc(Nc2ncnc3cc(OCCOC)c(OCCOC)cc23)c1 [Tarceva]	5.9	18.8	3.9	14.4	20	18.8	

— patent publication US8324188B2, “Combinations of ET-18-O-CH3and anti-cancer agents for the treatment of cancer” (priority 2006, dated 2012)
